Test results published in US6747149B2, “Glucamine salts for treating hepatitis virus infections” (G. D. Searle & Co., priority 1999, dated 2004).
Like-named read-outs stand apart in the source and are kept apart here. Marks after values point to notes of the source that are not given here.

Tests used:
Hepatitis B Virus = assay: Hepatitis B virus secretion by chronically HBV secreting HepG2.2.15 cells (immunoprecipitated virion DNA, PCR); format: cell-based; conditions: for [] for 90% HBV secretion inhibition: based upon duplicate PCR results; for Relative amount of HBV secreted As A % of Control: 3 days, preS1 immunoprecipitation, PCR
Experimental: (§1) The anti-hepatitis B virus activity and effect on cell viability of a number of different N-substituted-1,5-dideoxy-1,5-imino-D-glucitol compounds were assessed using an in vitro assay employing chronically hepatitis B virus secreting HepG2.2.15 cells. The method employed was essentially that described in Block et al. (1994) Proc. Natl. Acad. Sci. USA 91:2235-2239.

HepG2.2.15 Cells [1] = assay: MTT-based colorimetric assay of cell viability
Experimental: as §1

HepG2.2.15 Cells [2] = assay: Viability of HepG2.2.15 cells, trypan blue exclusion; format: cell-based; conditions: 3 days, cells excluding trypan blue
Experimental: as §1

HBV = assay: Cell culture experiments with N-nonyl-DNJ: total HBV DNA and immune precipitated DNA; format: cell-based, hepatitis B virus
Text: (§2) There are two measures of drug efficacy: reduction in total HBV DNA (measured by quantitative PCR), and reduction in HBV DNA from capsids with intact surface glycoproteins, which is the active form of the virus (measured by an ELISA-like immune precipitation assay followed by quantitative PCR).

[3] = test system: woodchuck hepatitis virus (WHV); assay: Woodchuck model, N-nonyl-DNJ alone, BID oral dosing; format: in vivo
Text: In order to evaluate the efficacy of N-nonyl-DNJ in combination with 3TC (or other nucleoside or nucleotide analogs) against Hepatitis B virus in a woodchuck animal model, an monotherapy experiment using N-nonyl-DNJ alone was first conducted. This was necessary to determine if N-nonyl-DNJ has any anti-HBV effect in the woodchuck and, if N-nonyl-DNJ has a beneficial effect, to design a combination study based on the dose-response relationship of this drug alone.
Therefore, five groups of four animals each (all groups had both sexes, all but the control had two of each sex) were assigned to 0, 12.5, 25, 50, and 100 mg/kg/day with BID oral dosing. These were lab-reared wild animals. All animals were infected with woodchuck hepatitis virus (WHV) as neonates, and had been tested positive on serological tests for WHV surface antigen. Blood samples were drawn one week prior to dosing (−1 week), immediately before dosing (0 weeks), weekly during dosing (1, 2, 3, and 4 weeks), and after the end of dosing (5, 6, 8, and 10 weeks).
as §2
Before models are fitted to the data, a log transform was applied because: 1) the variation in IPDNA increases with increasing IPDNA values; the log transformation gives values with a nearly constant variation, and 2) it is expected that drug effects will appear as a constant multiplier of the IPDNA level. Because there are zero values of IPDNA, a small value (about ½ of the smallest non-zero value) was added to all values before the log transform.
Two approaches were used to model the changes in slope to week with dose of N-nonyl-DNJ: a linear modeling approach and a nonlinear model. Both approaches assume that the (linear) rate of change of the Log(IPDNA) measure over the dosing period is the “right” measure to reflect the effect of the drug on the virus. Both approaches are fit in stages, and the first stage is common to both approaches. First, a simple straight line regression model is fit using weeks 0-4 to predict log(IPDNA_+—10) separately for each animal by run combination. In the second stage, the response variable is the slope fitted in the first stage.
For the linear approach, a model is fit with slope to week as the response where run is considered a block, dose has a significant effect (almost all of this effect is due to a slope to dose), and the relevant error for testing the effect of dose is the variation among animals treated alike (after the adjustment for the runs as blocks). This is similar to using the calibration data within each run to first adjust each run's data to a common virus DNA concentration; the difference is that here the data from the woodchucks are used for the run adjustment rather than only the calibration data.
For the nonlinear approach, a four parameter logistic model is fit with the slope to week as the response and the dose as the predictor. Again, run is considered a block, but because no run has all weeks, it is not possible to fully reflect the blocking in the nonlinear approach. […]

For CCCCN1C[C@H](O)[C@@H](O)[C@H](O)[C@H]1CO [NBDNJ, N-(n-butyl-)-1,5-dideoxy-1,5-imino-D-glucitol], the “[] for 90% HBV secretion inhibition” value (Hepatitis B Virus) was 0.5-1.0* microgs per ml, the “Relative amount of HBV secreted As A % of Control” value (Hepatitis B Virus; concentration [200]) was 37.0 +/− 13 (n = 15) % and the “Relative amount of HBV secreted As A % of Control” value (Hepatitis B Virus; concentration [200], listed as 1) was 85.0 +/− 5 (n = 8) %. The “Relative amount of HBV secreted As A % of Control” value (Hepatitis B Virus; concentration [1000]) was 3.2 +/− 5 (n = 15) %, the “Relative amount of HBV secreted As A % of Control” value (Hepatitis B Virus; concentration [1000], listed as 1) was 35.0 +/− 6 (n = 8) % and the “[] for a 50% reduction in MMT” value (HepG2.2.15 Cells [1]) was 100-200 microgs per ml.

With CCCCN1C[C@H](OC(C)=O)[C@@H](OC(C)=O)[C@H](OC(C)=O)[C@H]1COC(C)=O [Example 2, 1,5-(Butylimino)-1,5-dideoxy-D-glucitol, Tetraacetate] the “[] for 90% HBV secretion inhibition” value (Hepatitis B Virus) was >200*s* microgs per ml, the “Relative amount of HBV secreted As A % of Control” value (Hepatitis B Virus; concentration [200]) was 107.0 +/− 12 (n = 3) % and the “Relative amount of HBV secreted As A % of Control” value (Hepatitis B Virus; concentration [1000]) was 38.0 +/− 15 (n = 3) %. For the same compound, the “% Viable +/− 1 S.D.” value (HepG2.2.15 Cells [2]; concentration [200]) was 90 +/− 6 (n = 4) % and the “% Viable +/− 1 S.D.” value (HepG2.2.15 Cells [2]; concentration [1000]) was 89 +/− 4 (n = 4) %.

With CCCCCCCCCN1C[C@H](O)[C@@H](O)[C@H](O)[C@H]1CO [N-nonyl-DNJ, N-(n-nonyl)-1,5-dideoxy-1,5-imino-D-glucitol] the “effect on the immune precipitated DNA (IPDNA)” value (HBV) was “marked effect”, the “effect on total HBV DNA” value (HBV) was “little or no effect” and the “effect on total HBV DNA measurements” value ([3]; all dose levels, pre-dose and dosed portions, quantitative PCR) was “no effect”. The “average minimum slope observed” value ([3]; decrease of IPDNA, dosing weeks 0-4) was 0.31 fewer Log(IPDNA g/mL)/week, the “decrease of IPDNA at average minimum slope” value ([3]; dosing weeks 0-4) was “about 25 %/week” and the “slope of IPDNA levels over the dosing period due to dose or plasma level” value ([3]; weeks 0-4, straight line fitted per animal) was “significant difference in the slope”. The “approximate effective monotherapy dose” value ([3]; woodchucks) was “about 16 mg/kg/day”.

“N-[2-(4-Trifluoromethylphenyl)-ethyl]-glucamine [Example 7]” was tested, and the “[] for 90% HBV secretion inhibition” value (Hepatitis B Virus) was >200** microgs per ml and the “[] for a 50% reduction in MMT” value (HepG2.2.15 Cells [1]; HepG2.2.15 cells) was greater than 200 microgs per ml.
